Experimental data from patent US11840528B2 (Hoffmann-La Roche Inc., priority 2018, dated 2023).

Key:
h-GABA-A α5β3γ2 [1] = target: T1, h-GABA-A α5β3γ2 (Homo sapiens, UniProt P18507+P31644); assay: Two-electrode voltage clamp electrophysiology in Xenopus laevis oocytes expressing GABAA receptors, modulation of GABA EC20 current; assay type: cell-based; parameters: host or cells: Xenopus laevis oocytes micro-injected with RNA transcripts of the subunits; conditions: Table 1; for Efficacy (GABA) %: % modulation of GABA EC20 = 100*(Fold increase-1); for Fold increase h-GABA-A α5β3γ2 oocyte: test compound at approx. 30 fold its Ki, GABA at EC20
Procedure, shortened: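 Modulation is reported as % of the GABA EC20 current, calculated as 100*(Fold increase−1) from the peak ratio between a second GABA response carrying compound (applied at roughly 30-fold Ki) and a preceding control response. Oocytes expressing human α5β3γ2 were clamped at −80 mV at room temperature, 3–5 days after injection.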

h-GABA-A α5β3γ2 [2] = target: T1, h-GABA-A α5β3γ2; assay: [3H]flumazenil competition binding assay, membranes of HEK293 cells expressing GABAA receptors; conditions: displacement of [3H]-Flumazenil 0.5 nM, HEK293 cells expressing human receptors, mean of two determinations; Table 1
Procedure, shortened: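 Receptor source: human α5β3γ2 transiently transfected into HEK293 cells, membranes in pH 7.5 Krebs-tris. Filtration through GF/C, then scintillation counting.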

Compound: Cc1ccc(-c2noc(C)c2Cn2ncc(NCC3CCOCC3)cc2=O)cn1 [Example 88, 2-((5-methyl-3-(6-methylpyridin-3-yl)isoxazol-4-yl)methyl)-5-(((tetrahydro-2H-pyran-4-yl)methyl)amino)pyridazin-3(2H)-one]
- Efficacy (GABA) % (h-GABA-A α5β3γ2 [1]): 103%
- Fold increase h-GABA-A α5β3γ2 oocyte (h-GABA-A α5β3γ2 [1]): 2.03
- Ki (h-GABA-A α5β3γ2 [2]): 33.4 nM

Compound: Cc1ccc(-c2noc(C)c2Cn2ncc(N3CCO[C@@H](C)C3)cc2=O)cn1 [Example 89, 2-[[5-methyl-3-(6-methyl-3-pyridyl)isoxazol-4-yl]methyl]-5-[(2S)-2-methylmorpholin-4-yl]pyridazin-3-one]
- Efficacy (GABA) % (h-GABA-A α5β3γ2 [1]): 189%
- Fold increase h-GABA-A α5β3γ2 oocyte (h-GABA-A α5β3γ2 [1]): 2.89
- Ki (h-GABA-A α5β3γ2 [2]): 1.4 nM

Compound: Cc1ccc(-c2noc(C)c2Cn2ncc(N3CC[C@@H](OC(C)(C)C)C3)cc2=O)cn1 [Example 90, 5-[(3R)-3-tert-butoxypyrrolidin-1-yl]-2-[[5-methyl-3-(6-methyl-3-pyridyl)isoxazol-4-yl]methyl]pyridazin-3-one]
- Efficacy (GABA) % (h-GABA-A α5β3γ2 [1]): 109%
- Fold increase h-GABA-A α5β3γ2 oocyte (h-GABA-A α5β3γ2 [1]): 2.09
- Ki (h-GABA-A α5β3γ2 [2]): 24.8 nM

Compound: Cc1ccc(-c2nocc2Cn2ncc(N3CCO[C@@H](C)C3)cc2=O)cn1 [Example 91, 5-[(2S)-2-methylmorpholin-4-yl]-2-[[3-(6-methyl-3-pyridyl)isoxazol-4-yl]methyl]pyridazin-3-one]
- Efficacy (GABA) % (h-GABA-A α5β3γ2 [1]): 157%
- Fold increase h-GABA-A α5β3γ2 oocyte (h-GABA-A α5β3γ2 [1]): 2.57
- Ki (h-GABA-A α5β3γ2 [2]): 21.7 nM

Compound: Cc1ccc(-c2nocc2Cn2ncc(N3CCO[C@H](C)C3)cc2=O)cn1 [Example 92, 5-[(2R)-2-methylmorpholin-4-yl]-2-[[3-(6-methyl-3-pyridyl)isoxazol-4-yl]methyl]pyridazin-3-one]
- Efficacy (GABA) % (h-GABA-A α5β3γ2 [1]): 167%
- Fold increase h-GABA-A α5β3γ2 oocyte (h-GABA-A α5β3γ2 [1]): 2.67
- Ki (h-GABA-A α5β3γ2 [2]): 25.6 nM

Compound: Cc1ccc(-c2noc(C)c2Cn2ncc(N3C[C@@H](C)N[C@@H](C)C3)cc2=O)cn1 [Example 93, 5-[(3R,5S)-3,5-dimethylpiperazin-1-yl]-2-[[5-methyl-3-(6-methyl-3-pyridyl)isoxazol-4-yl]methyl]pyridazin-3-one]
- Efficacy (GABA) % (h-GABA-A α5β3γ2 [1]): 125%
- Fold increase h-GABA-A α5β3γ2 oocyte (h-GABA-A α5β3γ2 [1]): 2.25
- Ki (h-GABA-A α5β3γ2 [2]): 1.6 nM

Compound: Cc1ccc(-c2noc(C)c2Cn2ncc(N3CC(Oc4ccccc4)C3)cc2=O)cn1 [Example 94, 2-[[5-methyl-3-(6-methyl-3-pyridyl)isoxazol-4-yl]methyl]-5-(3-phenoxyazetidin-1-yl)pyridazin-3-one]
- Efficacy (GABA) % (h-GABA-A α5β3γ2 [1]): 136%
- Fold increase h-GABA-A α5β3γ2 oocyte (h-GABA-A α5β3γ2 [1]): 2.36
- Ki (h-GABA-A α5β3γ2 [2]): 7.8 nM

Compound: Cc1ccc(-c2noc(C)c2Cn2ncc(N3CC4(CCCO4)C3)cc2=O)cn1 [Example 95, 2-[[5-methyl-3-(6-methyl-3-pyridyl)isoxazol-4-yl]methyl]-5-(5-oxa-2-azaspiro[3.4]octan-2-yl)pyridazin-3-one]
- Efficacy (GABA) % (h-GABA-A α5β3γ2 [1]): 115%
- Fold increase h-GABA-A α5β3γ2 oocyte (h-GABA-A α5β3γ2 [1]): 2.15
- Ki (h-GABA-A α5β3γ2 [2]): 30.8 nM

Compound: Cc1ccc(-c2noc(C)c2Cn2ncc(NC3CN(C4CC4)C3)cc2=O)cn1 [Example 96, 5-((1-cyclopropylazetidin-3-yl)amino)-2-((5-methyl-3-(6-methylpyridin-3-yl)isoxazol-4-yl)methyl)pyridazin-3(2H)-one]
- Efficacy (GABA) % (h-GABA-A α5β3γ2 [1]): 132%
- Fold increase h-GABA-A α5β3γ2 oocyte (h-GABA-A α5β3γ2 [1]): 2.32
- Ki (h-GABA-A α5β3γ2 [2]): 13 nM

Compound: Cc1ccc(-c2noc(C)c2Cn2ncc(N3CCC3)cc2=O)cn1 [Example 97, 5-(azetidin-1-yl)-2-[[5-methyl-3-(6-methyl-3-pyridyl)isoxazol-4-yl]methyl]pyridazin-3-one]
- Efficacy (GABA) % (h-GABA-A α5β3γ2 [1]): 106%
- Fold increase h-GABA-A α5β3γ2 oocyte (h-GABA-A α5β3γ2 [1]): 2.06
- Ki (h-GABA-A α5β3γ2 [2]): 8.6 nM

Compound: Cc1ccc(-c2noc(C)c2Cn2ncc(N3CC(C)(O)C3)cc2=O)cn1 [Example 98, 5-(3-hydroxy-3-methyl-azetidin-1-yl)-2-[[5-methyl-3-(6-methyl-3-pyridyl)isoxazol-4-yl]methyl]pyridazin-3-one]
- Efficacy (GABA) % (h-GABA-A α5β3γ2 [1]): 132%
- Fold increase h-GABA-A α5β3γ2 oocyte (h-GABA-A α5β3γ2 [1]): 2.32
- Ki (h-GABA-A α5β3γ2 [2]): 7.3 nM

Compound: CCOC1CN(c2cnn(Cc3c(-c4ccc(C)nc4)noc3C)c(=O)c2)C1 [Example 99, 5-(3-ethoxyazetidin-1-yl)-2-[[5-methyl-3-(6-methyl-3-pyridyl)isoxazol-4-yl]methyl]pyridazin-3-one]
- Efficacy (GABA) % (h-GABA-A α5β3γ2 [1]): 134%
- Fold increase h-GABA-A α5β3γ2 oocyte (h-GABA-A α5β3γ2 [1]): 2.34
- Ki (h-GABA-A α5β3γ2 [2]): 14.4 nM

Compound: Cc1ccc(-c2noc(C)c2Cn2ncc(N3CC4CC(C3)O4)cc2=O)cn1 [Example 100, 2-[[5-methyl-3-(6-methyl-3-pyridyl)isoxazol-4-yl]methyl]-5-(6-oxa-3-azabicyclo[3.1.1]heptan-3-yl)pyridazin-3-one]
- Efficacy (GABA) % (h-GABA-A α5β3γ2 [1]): 105%
- Fold increase h-GABA-A α5β3γ2 oocyte (h-GABA-A α5β3γ2 [1]): 2.05
- Ki (h-GABA-A α5β3γ2 [2]): 12.2 nM

Compound: COc1ncccc1N1CCN(c2cnn(Cc3c(-c4ccc(C)nc4)noc3C)c(=O)c2)CC1 [Example 101, 5-[4-(2-methoxy-3-pyridyl)piperazin-1-yl]-2-[[5-methyl-3-(6-methyl-3-pyridyl)isoxazol-4-yl]methyl]pyridazin-3-one]
- Efficacy (GABA) % (h-GABA-A α5β3γ2 [1]): 146%
- Fold increase h-GABA-A α5β3γ2 oocyte (h-GABA-A α5β3γ2 [1]): 2.46
- Ki (h-GABA-A α5β3γ2 [2]): 3.2 nM

Compound: Cc1ncc(-c2noc(C)c2Cn2ncc(N(C)C)cc2=O)cc1F [Example 102, 5-(dimethylamino)-2-[[3-(5-fluoro-6-methyl-3-pyridyl)-5-methyl-isoxazol-4-yl]methyl]pyridazin-3-one]
- Efficacy (GABA) % (h-GABA-A α5β3γ2 [1]): 86%
- Fold increase h-GABA-A α5β3γ2 oocyte (h-GABA-A α5β3γ2 [1]): 1.86
- Ki (h-GABA-A α5β3γ2 [2]): 13.1 nM

Compound: Cc1ccc(-c2noc(C)c2Cn2ncc(-c3cnn(C)c3)cc2=O)cn1 [Example 103, 2-((5-methyl-3-(6-methyl-3-pyridyl)isoxazol-4-yl)methyl)-5-(1-methylpyrazol-4-yl)pyridazin-3-one]
- Efficacy (GABA) % (h-GABA-A α5β3γ2 [1]): 141%
- Fold increase h-GABA-A α5β3γ2 oocyte (h-GABA-A α5β3γ2 [1]): 2.41
- Ki (h-GABA-A α5β3γ2 [2]): 29.7 nM

Compound: COC1CN(c2cnn(Cc3c(-c4ccc(C)nc4)noc3C)c(=O)c2)C1 [Example 104, 5-(3-methoxyazetidin-1-yl)-2-[[5-methyl-3-(6-methyl-3-pyridyl)isoxazol-4-yl]methyl]pyridazin-3-one]
- Efficacy (GABA) % (h-GABA-A α5β3γ2 [1]): 134%
- Fold increase h-GABA-A α5β3γ2 oocyte (h-GABA-A α5β3γ2 [1]): 2.34
- Ki (h-GABA-A α5β3γ2 [2]): 22.9 nM

Compound: Cc1ccc(-c2noc(C)c2Cn2ncc(N3CC(O)C3)cc2=O)cn1 [Example 105, 5-(3-hydroxyazetidin-1-yl)-2-[[5-methyl-3-(6-methyl-3-pyridyl)isoxazol-4-yl]methyl]pyridazin-3-one]
- Efficacy (GABA) % (h-GABA-A α5β3γ2 [1]): 72%
- Fold increase h-GABA-A α5β3γ2 oocyte (h-GABA-A α5β3γ2 [1]): 1.72
- Ki (h-GABA-A α5β3γ2 [2]): 6 nM

Compound: Cc1ccc(-c2noc(C)c2Cn2ncc(-c3ccnc(C)c3)cc2=O)cn1 [Example 106, 2-((5-methyl-3-(6-methylpyridin-3-yl)isoxazol-4-yl)methyl)-5-(2-methylpyridin-4-yl)pyridazin-3(2H)-one]
- Efficacy (GABA) % (h-GABA-A α5β3γ2 [1]): 136%
- Fold increase h-GABA-A α5β3γ2 oocyte (h-GABA-A α5β3γ2 [1]): 2.36
- Ki (h-GABA-A α5β3γ2 [2]): 6.2 nM

Compound: COc1cc(-c2cnn(Cc3c(-c4ccc(C)nc4)noc3C)c(=O)c2)ccn1 [Example 107, 5-(2-methoxypyridin-4-yl)-2-((5-methyl-3-(6-methylpyridin-3-yl)isoxazol-4-yl)methyl)pyridazin-3(2H)-one]
- Efficacy (GABA) % (h-GABA-A α5β3γ2 [1]): 70%
- Fold increase h-GABA-A α5β3γ2 oocyte (h-GABA-A α5β3γ2 [1]): 1.7
- Ki (h-GABA-A α5β3γ2 [2]): 3.8 nM

Compound: Cc1ccc(-c2noc(C)c2Cn2ncc(-c3ccnc(C(F)(F)F)c3)cc2=O)cn1 [Example 108, 2-((5-methyl-3-(6-methylpyridin-3-yl)isoxazol-4-yl)methyl)-5-(2-(trifluoromethyl)pyridin-4-yl)pyridazin-3(2H)-one]
- Efficacy (GABA) % (h-GABA-A α5β3γ2 [1]): 104%
- Fold increase h-GABA-A α5β3γ2 oocyte (h-GABA-A α5β3γ2 [1]): 2.04
- Ki (h-GABA-A α5β3γ2 [2]): 11.4 nM

Compound: CCc1nccn1C1CCN(c2cnn(Cc3c(-c4ccc(C)nc4)noc3C)c(=O)c2)CC1 [Example 109, 5-[4-(2-ethylimidazol-1-yl)-1-piperidyl]-2-[[5-methyl-3-(6-methyl-3-pyridyl)isoxazol-4-yl]methyl]pyridazin-3-one]
- Efficacy (GABA) % (h-GABA-A α5β3γ2 [1]): 107%
- Fold increase h-GABA-A α5β3γ2 oocyte (h-GABA-A α5β3γ2 [1]): 2.07
- Ki (h-GABA-A α5β3γ2 [2]): 2.2 nM

Compound: Cc1ccc(-c2noc(C)c2Cn2ncc(N3CCC(n4ccnc4C)CC3)cc2=O)cn1 [Example 110, 5-[4-(2-methylimidazol-1-yl)-1-piperidyl]-2-[[5-methyl-3-(6-methyl-3-pyridyl)isoxazol-4-yl]methyl]pyridazin-3-one]
- Efficacy (GABA) % (h-GABA-A α5β3γ2 [1]): 142%
- Fold increase h-GABA-A α5β3γ2 oocyte (h-GABA-A α5β3γ2 [1]): 2.42
- Ki (h-GABA-A α5β3γ2 [2]): 1.2 nM

Compound: Cc1ccc(-c2noc(C)c2Cn2ncc(N3CC(OCC4CC4)C3)cc2=O)cn1 [Example 111, 5-[3-(cyclopropylmethoxy)azetidin-1-yl]-2-[[5-methyl-3-(6-methyl-3-pyridyl)isoxazol-4-yl]methyl]pyridazin-3-one]
- Efficacy (GABA) % (h-GABA-A α5β3γ2 [1]): 147%
- Fold increase h-GABA-A α5β3γ2 oocyte (h-GABA-A α5β3γ2 [1]): 2.47
- Ki (h-GABA-A α5β3γ2 [2]): 34.6 nM

Compound: Cc1ccc(-c2noc(C)c2Cn2ncc(N3CC(OC(C)C)C3)cc2=O)cn1 [Example 112, 5-(3-isopropoxyazetidin-1-yl)-2-[[5-methyl-3-(6-methyl-3-pyridyl)isoxazol-4-yl]methyl]pyridazin-3-one]
- Efficacy (GABA) % (h-GABA-A α5β3γ2 [1]): 101%
- Fold increase h-GABA-A α5β3γ2 oocyte (h-GABA-A α5β3γ2 [1]): 2.01
- Ki (h-GABA-A α5β3γ2 [2]): 38 nM

Compound: COc1ccc(-c2cnn(Cc3c(-c4ccc(C)nc4)noc3C)c(=O)c2)cc1OC [Example 113, 5-(3,4-dimethoxyphenyl)-2-((5-methyl-3-(6-methyl-3-pyridyl)isoxazol-4-yl)methyl)pyridazin-3-one]
- Efficacy (GABA) % (h-GABA-A α5β3γ2 [1]): 91%
- Fold increase h-GABA-A α5β3γ2 oocyte (h-GABA-A α5β3γ2 [1]): 1.91
- Ki (h-GABA-A α5β3γ2 [2]): 7.8 nM
